Laboratory results taken from patent US12371454B2, “Cyclic peptide compound having Kras inhibitory action” (priority 2019, dated 2025).
pIC50: −log10 of the molar value. Starred links: 1 amine or outer side, 2 acyl side, 3 side chain; linkers in the order of their positions; H or OH if unused. Positions of bridges follow the written chain, without caps; N, C: chain ends. Non-standard residues stand in square brackets, D forms with d. Residues, ends and D or L forms follow the SMILES beside them. *: point of attachment. hPhe(3-Cl-4-CF3) = N[C@@H](CCc1ccc(C(F)(F)F)c(Cl)c1)C(=O)O; NMePhe(4-CF3) = CN[C@@H](Cc1ccc(C(F)(F)F)cc1)C(=O)O; hPhe(4-CF3) = N[C@@H](CCc1ccc(C(F)(F)F)cc1)C(=O)O; NMePhe(4-Cl) = CN[C@@H](Cc1ccc(Cl)cc1)C(=O)O; NMePhe(4-Me) = CN[C@@H](Cc1ccc(C)cc1)C(=O)O; NMePhe(2-Cl) = CN[C@@H](Cc1ccccc1Cl)C(=O)O; NMedβ3hAla = C[C@H](CC(=O)[*:2])N(C)[*:1]; NMeGly(cPent) = CN[C@H](C(=O)O)C1CCCC1; Phe(3-I) = N[C@@H](Cc1cccc(I)c1)C(=O)O; Pro(4,4-F2) = O=C(O)[C@@H]1CC(F)(F)CN1; X10 = CC(C)=CC[C@H](N[*:1])C(=O)[*:2]; NMeGly(cBu) = CN[C@H](C(=O)O)C1CCC1; NMeCha = CN[C@@H](CC1CCCCC1)C(=O)O; NMeF = CN[C@@H](Cc1ccccc1)C(=O)O; NMeI = CC[C@H](C)[C@H](NC)C(=O)O; NMeD = CN[C@@H](CC(=O)O)C(=O)O; CH2CONHtBu = CC(C)(C)NC(=O)C*; NMeL = CN[C@@H](CC(C)C)C(=O)O; NMeV = CN[C@H](C(=O)O)C(C)C; d(β3hA) = C[C@@H](N)CC(=O)O; NMeA = CN[C@@H](C)C(=O)O; NMeAib = CNC(C)(C)C(=O)O; Piperidide = C1CCN(*)CC1; Pyrrolidide = C1CCN(*)C1; Ac5c = NC1(C(=O)O)CCCC1; Aze = O=C(O)[C@@H]1CCN1; Ac4c = NC1(C(=O)O)CCC1; Aib = CC(C)(N)C(=O)O; Sar = CNCC(=O)O

What follows are compounds tested against T1, Kras and SOS1 (biotin-tagged human Kras loaded with GDP, His-tagged human SOS1) (Homo sapiens, UniProt P01116, G12D) (assay: Protein-protein interaction inhibition between Kras and SOS1 (KrasGl2D-SOS PPI) using AlphaScreen). Details: AlphaScreen; biotin-tagged human Kras loaded with GDP, His-tagged human SOS1; read-out: KRAS G12D-SOS PPI IC50.
T1 construct: made in house; host or cells: E. coli (stated for Kras only)
T1 sequence (P01116 1-188 isoform P01116-2 G12D): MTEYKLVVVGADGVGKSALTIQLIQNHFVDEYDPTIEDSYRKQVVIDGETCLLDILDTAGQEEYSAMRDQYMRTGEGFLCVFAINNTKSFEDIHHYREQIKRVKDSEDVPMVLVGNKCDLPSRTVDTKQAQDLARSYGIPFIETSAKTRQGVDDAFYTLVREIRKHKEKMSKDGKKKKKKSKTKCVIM
Assay type: binding
Method in brief: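 Donor beads (nickel) hold His-SOS1; acceptor beads (streptavidin) hold biotin-Kras bound to GDP. Signal measured at 520-620 nm following 680 nm excitation.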
For `CC[C@H](C)[C@@H]1NC(=O)[C@H](CC(C)C)N(C)C(=O)C[C@@H](C(=O)N(C)C)N(C)C(=O)[C@H]([C@@H](C)CC)N(C)C(=O)[C@H](C)NC(=O)[C@H](C)N(C)C(=O)[C@H](CCc2ccc(C(F)(F)F)c(Cl)c2)NC(=O)CN(C)C(=O)[C@H](Cc2ccc(C)cc2)N(C)C(=O)[C@@H]2CCN2C(=O)[C@H](C)N(C)C1=O` [Compound 715] ([NMeL]I[NMeA][Aze][NMePhe(4-Me)][Sar][hPhe(3-Cl-4-CF3)][NMeA]A[NMeI][NMeD]-NMe2; lactam N-11), the pIC50 was 8.21. For `CC[C@H](C)[C@@H]1NC(=O)[C@H](CC(C)C)N(C)C(=O)C[C@@H](C)NC(=O)[C@H](C2CCC2)N(C)C(=O)C2(CCCC2)NC(=O)[C@@H]2CCCN2C(=O)[C@H](CCc2ccc(C(F)(F)F)c(Cl)c2)NC(=O)CN(C)C(=O)[C@H](CC2CCCCC2)N(C)C(=O)CN(C)C(=O)CN(C)C1=O` [Compound 183] (cyclo([Ac5c][NMeGly(cBu)][d(β3hA)][NMeL]I[Sar][Sar][NMeCha][Sar][hPhe(3-Cl-4-CF3)]P)), the pIC50 was 7.59. `CC[C@H](C)[C@@H]1NC(=O)[C@H](C)N(C)C(=O)C[C@@H](C(=O)N2CCCC2)N(C)C(=O)[C@H](C(C)C)N(C)C(=O)C(C)(C)NC(=O)[C@H](Cc2ccccc2Cl)N(C)C(=O)[C@H](CCc2ccc(C(F)(F)F)c(Cl)c2)NC(=O)CN(C)C(=O)[C@H](CC2CCCCC2)N(C)C(=O)CN(C)C(=O)CN(C)C1=O` [Compound 426] ([NMeA]I[Sar][Sar][NMeCha][Sar][hPhe(3-Cl-4-CF3)][NMePhe(2-Cl)][Aib][NMeV][NMeD]-Pyrrolidide; lactam N-11) gave a pIC50 of 8.06. With `CC[C@H](C)[C@@H]1NC(=O)[C@H](C)N(C)C(=O)C[C@@H](C(=O)N2CCCC2)NC(=O)[C@H](CC(C)C)N(C)C(=O)[C@H](Cc2ccccc2)N(C)C(=O)[C@H](COCC(=O)NC(C)(C)C)NC(=O)[C@H](CCc2ccc(C(F)(F)F)cc2)NC(=O)CN(C)C(=O)[C@H](Cc2ccc(Cl)cc2)N(C)C(=O)CN(C)C(=O)CN(C)C1=O` [Compound 233] ([NMeA]I[Sar][Sar][NMePhe(4-Cl)][Sar][hPhe(4-CF3)]S(CH2CONHtBu)[NMeF][NMeL]D-Pyrrolidide; lactam N-11) the pIC50 was 7.18. For `CC[C@H](C)[C@@H]1NC(=O)[C@H](C)N(C)C(=O)C[C@@H](C)NC(=O)[C@H](C(C)C)N(C)C(=O)[C@H](Cc2ccccc2)N(C)C(=O)[C@H](CC(C)C)N(C)C(=O)[C@H](CCc2ccc(C(F)(F)F)c(Cl)c2)NC(=O)CN(C)C(=O)[C@H](Cc2ccc(Cl)cc2)N(C)C(=O)CN(C)C(=O)CN(C)C1=O` [Compound 1079] (cyclo(I[Sar][Sar][NMePhe(4-Cl)][Sar][hPhe(3-Cl-4-CF3)][NMeL][NMeF][NMeV][d(β3hA)][NMeA])), the pIC50 was 7.82. In the case of `CC[C@H](C)[C@@H]1NC(=O)[C@H](CC(C)C)N(C)C(=O)C[C@@H](C(=O)N2CCCCC2)N(C)C(=O)[C@H](CC(C)C)NC(=O)C(C)(C)N(C)C(=O)[C@H](CC=C(C)C)NC(=O)[C@H](Cc2cccc(I)c2)NC(=O)CN(C)C(=O)[C@H](Cc2ccc(Cl)cc2)N(C)C(=O)[C@@H]2CCN2C(=O)[C@H](C)N(C)C1=O` [Compound 1419] ([NMeL]I[NMeA][Aze][NMePhe(4-Cl)][Sar][Phe(3-I)][X10][NMeAib]L[NMeD]-Piperidide; lactam N-11), the pIC50 was 7.34. For `CC[C@H](C)[C@@H]1NC(=O)[C@H](CC(C)C)N(C)C(=O)C[C@@H](C)N(C)C(=O)[C@H]([C@@H](C)CC)N(C)C(=O)C2(CCC2)NC(=O)[C@@H]2CC(F)(F)CN2C(=O)[C@H](CCc2ccc(C(F)(F)F)c(Cl)c2)NC(=O)CN(C)C(=O)[C@H](Cc2ccc(C(F)(F)F)cc2)N(C)C(=O)CN(C)C(=O)CN(C)C1=O` [Compound 1074] (cyclo([Ac4c][NMeI][NMedβ3hAla][NMeL]I[Sar][Sar][NMePhe(4-CF3)][Sar][hPhe(3-Cl-4-CF3)][Pro(4,4-F2)])), the pIC50 was 7.96. In the case of `CC[C@H](C)[C@@H]1NC(=O)[C@H](C)N(C)C(=O)C[C@@H](C)NC(=O)[C@H](C2CCCC2)N(C)C(=O)C2(CCCC2)NC(=O)[C@@H]2CCCN2C(=O)[C@H](CCc2ccc(C(F)(F)F)c(Cl)c2)NC(=O)[C@H]2CCCN2C(=O)[C@H](CC2CCCCC2)N(C)C(=O)CN(C)C(=O)CN(C)C1=O` [Compound 1543] (cyclo([Ac5c][NMeGly(cPent)][d(β3hA)][NMeA]I[Sar][Sar][NMeCha][dP][hPhe(3-Cl-4-CF3)]P)), the pIC50 was 6.80. For `CC[C@H](C)[C@@H]1NC(=O)[C@H](CC(C)C)N(C)C(=O)C[C@@H](C)NC(=O)[C@H](C2CCCC2)N(C)C(=O)[C@H](C(C)C)NC(=O)[C@@H]2CCCN2C(=O)[C@H](CCc2ccc(C(F)(F)F)c(Cl)c2)NC(=O)CN(C)C(=O)[C@H](Cc2ccc(C)cc2)N(C)C(=O)[C@@H]2CCN2C(=O)[C@H](C)N(C)C1=O` [Compound 933] (cyclo([Aze][NMePhe(4-Me)][Sar][hPhe(3-Cl-4-CF3)]PV[NMeGly(cPent)][d(β3hA)][NMeL]I[NMeA])), the pIC50 was 7.08.
